Like-named read-outs stand apart in the source and are kept apart here.
Key:
PDE3 = assay: Inhibition of cyclic nucleotide PDE activity (Assay I), PDE3; assay type: biochemical, guinea pig; conditions: mean ± S.E.M. (n); read-out: IC50 on phosphodiesterase isozyme 3
Experimental: (§1) Under a protocol approved by the Animal Care and Use Committee of Taipei Medical University, five male guinea pigs (Hartley), weighing 500-600 g, were sacrificed. The lungs (15 g) or hearts (4 g) taken therefrom were chopped into small pieces and homogenized with a glass/teflon homogenizer (Glas-Col, Terre Haute, Ind., USA) in 10 volumes of cold medium (pH 6.5) containing 20 mM Bis-Tris, 2 mM benzamidine, 2 mM EDTA, 50 mM sodium chloride, 0.1 mM phenylmethanesulfonyl fluoride (PMSF), and 1 mM dithiothreitol. At 4° C., the homogenate was centrifuged at 170 g for 15 min, and the supernatant thereof was then re-centrifuged at 40,000 g for 30 min. […] The column was washed with two bed volumes of homogenate buffer to remove unbound material, where the resin beads therein will bind with proteins, such as PDE proteins. Proteins bound to the Q-sepharose beads were eluted with various concentrations (0.23, 0.34, 0.44, 0.69, and 1.00 M) of NaCl dissolved in homogenate buffer (for each concentration, 40-50 mL elution buffer were applied) at a flow rate of 30 ml/h. Fractions (3 ml each) were collected, and ethylene glycol (EG) was added thereto until a final concentration of 30% (v/v). And then the samples were frozen at −70° C.
(§2) The activities of PDE1-5 in the homogenate were measured with a two-step procedure according to the method of Thompson and Appleman, using cAMP with [^3H]-cAMP or cGMP with [^3 H]-cGMP as substrates. The PDE enzyme prepared (25 μl) with 10 μl inhibitor or the solvents therefor was incubated for 30 min at 37° C. in a total assay buffer, where the final volume of the assay is amounted to 100 μl. In accordance with the features of the PDE isozymes, the assay buffer contains 50 mM Tris/HCl (pH 7.4), 3 mM MgCl2, 1 mM dithiothreitol, and 0.05% BSA, and optionally contains 1 uM cAMP with 0.2 μCi [^3H]-cAMP as a substrate alone or in the presence of 0.1 unit calmodulin with 10 μM CaCl2, or 5 μM cGMP, and 1 μM cGMP with 0.2 μCi [^3H]-cGMP as another substrate alone or in the presence of 0.1 unit calmodulin with 10 μM CaCl2.
(§3) The PDE enzyme and the inhibitors (or their solvent) therefor were mixed and incubated on ice for 30 min previously, and then mixed with the assay buffer. The assay was initiated by transferring the mixture to a water bath at 37° C. Following the other 30 min incubation, the reaction was stopped by transferring the reaction vessel to a bath of boiling water for 3 min. After cooling on ice, 20 μl of the 1 mg/ml of Crotalus atrox venom was added to the reaction mixture, and the mixture was incubated at 37° C. for 10 min. The uncatalyzed substrates, such as cAMP, [^3H]-cAMP, cGMP, or [^3H]-cGMP were removed by the addition of 500 μl of a 1-in-1 Tris-HCl (40 mM) buffer suspension of Dowex resin (1×8-200) with incubation on ice for 30 min, since the bindings of the cyclic nucleotides and the resin. Each tube was then centrifuged for 2 min at 6000 rpm, and 100 μl of the supernatant was removed and counted by a β-counter for calculating the enzyme (PDEs) activity.
The IC50 values of flavonoids and various reference drugs were calculated using non-linear regression analysis by the software SigmaPlot 7.0 (Sigma Chemical, St. Louis Mo., USA). All values are shown as the mean±S.E.M. Differences among values, which are equal or greater to three groups, were statistically calculated by one-way analysis of variance (ANOVA), and then determined by the least significant difference (LSD). The difference between two values, however, was determined by use of Student's unpaired t-test. Differences were considered statistically significant if the P-value was less than 0.05.

PDE5 = PDE5 (Cavia porcellus, UniProt H0VD23); assay: Inhibition of cyclic nucleotide PDE activity (Assay I), PDE5; assay type: biochemical, guinea pig
Experimental: as §1, with “Proteins bound to the Q-sepharose beads were eluted with various concentrations (0.23, 0.34, 0.44, 0.69, and 1.00 M) of NaCl dissolved in homogenate buffer (for each concentration, 40-50 mL elution buffer were applied) at a flow rate of 30 ml/h. Fractions (3 ml each) were collected, and ethylene glycol (EG) was added thereto until a final concentration of 30% (v/v).” left out
In order to eliminate possible contamination of PDE5 by PDE1, the above-collected fractions with enzyme activity was further purified on a calmodulin-agarose column. The column (1.6 cm×4 cm) was pre-equilibrated by a buffer A, which contains 20 mM Bis-tris, 1 mM dithiothreitol, 2 mM benzamidine, 50 mM NaCl, 3 mMMgCl2, 0.1 mM CaCl2, and 0.1 mM PMSF, pH 6.5. The sample (the mixture of PDE5 and PDE1), being purified by the above-mentioned column, with the CaCl2 concentration thereof adjusted to at least 2 mM previously, was loaded and allowed to be absorbed on the gel for 30 min. Then, the PDE isozymes were eluted by stepwise elution using 20 ml of buffer A with 1 M NaCl followed by 20 ml of buffer A with 1 M NaCl and with 1 mM EGTA.
as §2, §3
The IC50 values of flavonoids and various reference drugs were calculated using non-linear regression analysis by the software SigmaPlot 7.0 (Sigma Chemical, St. Louis Mo., USA).

[1] = mean ± S.E.M. (n), read-out: IC50 on phosphodiesterase isozyme 5

| SMILES | IC50 (PDE3) | IC50 (PDE5; [1]) | IC50 (PDE5) |
| --- | --- | --- | --- |
| O=c1cc(-c2ccc(O)cc2)oc2cc(O)cc(O)c12 [Apigenin] | 10.5 ± 3.5 µM | > 100 µM | – |
| COc1ccc(-c2coc3cc(O)cc(O)c3c2=O)cc1 [Biochanin A] | > 100 µM | > 100 µM | – |
| O=c1cc(-c2ccccc2)oc2cc(O)cc(O)c12 [Chrysin] | > 100 µM | > 100 µM | – |
| O=c1c(-c2ccc(O)cc2)coc2cc(O)ccc12 [Daidzein] | 28.6 ± 8.5 µM | > 100 µM | – |
| O=C1CC(c2ccc(O)c(O)c2)Oc2cc(O)cc(O)c21 (stereo not drawn) [Eriodictyol] | 52.5 ± 17.7 µM | > 100 µM | – |
| O=c1c(-c2ccc(O)cc2)coc2cc(O)cc(O)c12 [Genistein] | 12.9 ± 5.2 µM | – | 73.9 ± 7.1 µM |
| COc1ccc(C2CC(=O)c3c(O)cc(O)cc3O2)cc1O (stereo not drawn) [Hesperetin] | > 100 µM | > 100 µM | – |
| O=c1cc(-c2ccc(O)c(O)c2)oc2cc(O[C@@H]3O[C@H](CO)[C@@H](O)[C@H](O)[C@H]3O)cc(O)c12 [Luteolin-7-glucoside] | > 100 µM | > 100 µM | – |
| O=c1cc(-c2ccc(O)c(O)c2)oc2cc(O)cc(O)c12 [Luteolin] | 10.1 ± 1.8 µM | 19.3 ± 3.2 µM | – |
| O=c1c(O)c(-c2cc(O)c(O)c(O)c2)oc2cc(O)cc(O)c12 [Myricetin] | 12.4 ± 3.3 µM | > 100 µM | – |
| COc1cc(O)c2c(=O)c(-c3ccc(O)cc3)coc2c1 [Prunetin] | > 100 µM | – | > 100 µM |
| O=c1c(O)c(-c2ccc(O)c(O)c2)oc2cc(O)cc(O)c12 [Quercetin] | 5.6 ± 1 µM | > 100 µM | – |
